The values that follow come from patent US8748422B2, “Pharmaceutical compositions containing quinazoline derivatives for treating as serotonin receptor antagonist” (Korea Institute of Science and Technology, priority 2007, dated 2014).

The structures appear in SMILES notation.

The test has as its target T1, serotonin 5-HT3A receptor (Homo sapiens, UniProt P46098).
T1 sequence (P46098 24-478): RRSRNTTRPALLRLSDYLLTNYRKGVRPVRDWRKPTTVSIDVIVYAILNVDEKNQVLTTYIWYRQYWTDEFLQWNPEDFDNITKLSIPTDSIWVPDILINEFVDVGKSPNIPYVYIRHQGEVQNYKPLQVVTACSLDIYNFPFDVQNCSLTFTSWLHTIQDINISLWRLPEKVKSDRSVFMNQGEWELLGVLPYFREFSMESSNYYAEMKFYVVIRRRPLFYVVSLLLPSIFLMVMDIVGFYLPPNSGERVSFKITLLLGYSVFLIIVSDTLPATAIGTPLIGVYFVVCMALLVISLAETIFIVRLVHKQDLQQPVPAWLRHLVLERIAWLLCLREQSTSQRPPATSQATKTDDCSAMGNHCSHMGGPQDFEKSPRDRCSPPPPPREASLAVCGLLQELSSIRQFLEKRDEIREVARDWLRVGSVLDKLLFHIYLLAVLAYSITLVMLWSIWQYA
The test can be described thus: Assay for 5-HT3A receptor: two-electrode voltage clamp in Xenopus oocytes, inhibition of 5-HT-induced inward current. It counts as cell-based. To be noted: 5-HT3A receptor expressed in Xenopus laevis oocytes; for nH (Hill coefficient) / inhibition: from concentration-response curves; for inhibition / IC50: inward current induced by 5-HT (1 μM); for inhibition: read-out: Vmax (maximum inhibition value); for IC50: test concentrations 0.003-100 μM, read-out: IC50 (50% inhibitory concentration). A general note: Two-electrode voltage clamp holds a large cell at a set potential and records current.

Broadly, the inhibition is the change of the read-out against control, counted positive when it falls. As to `O=C(NCCCN1CCOCC1)c1ccc2c(=O)n(Cc3ccc(Cl)cc3)c(=O)[nH]c2c1` [Compound 16, 3-(4-Chloro-benzyl)-2,4-dioxo-1,2,3,4-tetrahydro-quinazoline-7-carboxylic acid (3-morpholine-4-yl-propyl)-amide], the “nH (Hill coefficient)” value was found to be 5.3 ± 1.5, the inhibition is 52.5 ± 0.6% and the IC50 was determined as 1300 ± 100 nM.
Turning to `CCC1CCCCN1CCCNC(=O)c1ccc2c(=O)n(Cc3ccc(Cl)cc3)c(=O)[nH]c2c1` (centres unmarked) [Compound 18, 3-(4-Chloro-benzyl)-2,4-dioxo-1,2,3,4-tetrahydro-quinazoline-7-carboxylic acid [3-(2-ethyl-piperidine-1-yl)-propyl]-amide], the “nH (Hill coefficient)” value amounted to 1.4 ± 0.1, the inhibition was 99.5 ± 1.6% and the IC50 turned out to be 4800 ± 200 nM.
In the case of `O=C(NCCN1CCCCC1)c1ccc2c(=O)n(Cc3ccccc3F)c(=O)[nH]c2c1` [Compound 4, 3-(2-Fluoro-benzyl)-2,4-dioxo-1,2,3,4-tetrahydro-quinazoline-7-carboxylic acid (2-piperidine-1-yl-ethyl)-amide], the “nH (Hill coefficient)” value is 1.4 ± 0.4, the inhibition was 100 ± 9.6% and the IC50 amounted to 2100 ± 600 nM.
For `Cn1c(=O)[nH]c2cc(C(=O)NCCN3CCCCC3)ccc2c1=O` [Compound 12, 3-Methyl-2,4-dioxo-1,2,3,4-tetrahydro-quinazoline-7-carboxylic acid (2-piperidine-1-yl-ethyl)-amide] the same measures were 1.4 ± 0.1, 103 ± 3.3% and 2200 ± 200 nM.
As for `CCCn1c(=O)[nH]c2cc(C(=O)NCCN3CCCCC3)ccc2c1=O` [Compound 11, 2,4-Dioxo-3-propyl-1,2,3,4-tetrahydro-quinazoline-7-carboxylic acid (2-piperidine-1-yl-ethyl)-amide], the “nH (Hill coefficient)” value is 1.3 ± 0.1, the inhibition amounted to 104 ± 3.6% and the IC50 came out at 2200 ± 200 nM.
`O=C(NCCN1CCCCC1)c1ccc2c(=O)n(C3CCCCC3)c(=O)[nH]c2c1` [Compound 10, 3-Cyclohexyl-2,4-dioxo-1,2,3,4-tetrahydro-quinazoline-7-carboxylic acid (2-piperidine-1-yl-ethyl)-amide]: the “nH (Hill coefficient)” value worked out at 1.1 ± 0.1, the inhibition was 98.8 ± 4.2% and the IC50 stood at 2000 ± 300 nM.
As for `O=C(NCCN1CCCCC1)c1ccc2c(=O)n(Cc3ccc(Cl)cc3)c(=O)[nH]c2c1` [Compound 14, 3-(4-Chloro-benzyl)-2,4-dioxo-1,2,3,4-tetrahydro-quinazoline-7-carboxylic acid (2-piperidine-1-yl-ethyl)-amide], the “nH (Hill coefficient)” value amounted to 1.2 ± 0.2, the inhibition was 106 ± 2.5% and the IC50 was 3300 ± 500 nM.
For `COc1ccccc1Cn1c(=O)[nH]c2cc(C(=O)NCCN3CCCCC3)ccc2c1=O` [Compound 7, 3-(2-Methoxy-benzyl)-2,4-dioxo-1,2,3,4-tetrahydro-quinazoline-7-carboxylic acid (2-piperidine-1-yl-ethyl)-amide] the same measures were 1.1 ± 0.2, 103 ± 5.1% and 1400 ± 200 nM.
In the case of `O=C(NCCCN1CCCCC1)c1ccc2c(=O)n(Cc3ccc(Cl)cc3)c(=O)[nH]c2c1` [Compound 19, 3-(4-Chloro-benzyl)-2,4-dioxo-1,2,3,4-tetrahydro-quinazoline-7-carboxylic acid (3-piperidine-1-yl-propyl)-amide], the “nH (Hill coefficient)” value was determined as 1.5 ± 0.2, the inhibition amounted to 98.2 ± 4.5% and the IC50 amounted to 5700 ± 600 nM.
Regarding `COc1ccc(-n2c(=O)[nH]c3cc(C(=O)NCCN4CCCCC4)ccc3c2=O)cc1` [Compound 3, 3-(4-Methoxy-phenyl)-2,4-dioxo-1,2,3,4-tetrahydro-quinazoline-7-carboxylic acid (2-piperidine-1-yl-ethyl)-amide], the “nH (Hill coefficient)” value is listed as 1.4 ± 0.2, the inhibition was 101 ± 3.6% and the IC50 came to 1600 ± 200 nM.
The matching figures for `COc1ccc(Cn2c(=O)[nH]c3cc(C(=O)NCCN4CCCCC4)ccc3c2=O)cc1` [Compound 9, 3-(4-Methoxybenzyl)-2,4-dioxo-1,2,3,4-tetrahydro-quinazoline-7-carboxylic acid (2-piperidine-1-yl-ethyl)-amide]: 1.7 ± 0.2, 96.4 ± 2.9% and 800 ± 100 nM.
Regarding `O=C(NCCN1CCCC1)c1ccc2c(=O)n(Cc3ccc(Cl)cc3)c(=O)[nH]c2c1` [Compound 1, 3-(4-Chloro-benzyl)-2,4-dioxo-1,2,3,4-tetrahydro-quinazoline-7-carboxylic acid (2-pyrrolidine-1-yl-ethyl)-amide], the “nH (Hill coefficient)” value was 0.9 ± 0.1, the inhibition was determined as 103 ± 12.8% and the IC50 turned out to be 7500 ± 2500 nM.
Take `CC1CCCCN1CCNC(=O)c1ccc2c(=O)n(Cc3ccc(Cl)cc3)c(=O)[nH]c2c1` (centres unmarked) [Compound 15, 3-(4-Chloro-benzyl)-2,4-dioxo-1,2,3,4-tetrahydro-quinazoline-7-carboxylic acid (2-(2-methylpiperidine-1-yl)ethyl)-amide]: the “nH (Hill coefficient)” value is on record as 1.2 ± 0.1, the inhibition is 104 ± 2.5% and the IC50 turned out to be 2800 ± 200 nM.
Consider `O=C(NCCN1CCCCC1)c1ccc2c(=O)n(Cc3cccc(F)c3)c(=O)[nH]c2c1` [Compound 5, 3-(3-Fluoro-benzyl)-2,4-dioxo-1,2,3,4-tetrahydro-quinazoline-7-carboxylic acid (2-piperidine-1-yl-ethyl)-amide], for which the “nH (Hill coefficient)” value was 1.0 ± 0.2, the inhibition is 108 ± 11.5% and the IC50 came out at 2400 ± 800 nM.
Consider `O=C(NCCN1CCCCC1)c1ccc2c(=O)n(Cc3ccccc3Cl)c(=O)[nH]c2c1` [Compound 13, (2-Chloro-benzyl)-2,4-dioxo-1,2,3,4-tetrahydro-quinazoline-7-carboxylic acid (2-piperidine-1-yl-ethyl)-amide], for which the inhibition was 96 ± 3.9%.
As for `COc1cccc(Cn2c(=O)[nH]c3cc(C(=O)NCCN4CCCCC4)ccc3c2=O)c1` [Compound 8, 3-(3-Methoxybenzyl)-2,4-dioxo-1,2,3,4-tetrahydro-quinazoline-7-carboxylic acid (2-piperidine-1-yl-ethyl)-amide], the “nH (Hill coefficient)” value was 1.3 ± 0.3, the inhibition amounted to 107 ± 8.5% and the IC50 is 2700 ± 600 nM.
As for `O=C(NCCN1CCCCC1)c1ccc2c(=O)n(-c3ccc(F)cc3)c(=O)[nH]c2c1` [Compound 2, 3-(4-Fluoro-phenyl)-2,4-dioxo-1,2,3,4-tetrahydro-quinazoline-7-carboxylic acid (2-piperidine-1-yl-ethyl)-amide], the “nH (Hill coefficient)” value is reported as 0.9 ± 0.1, the inhibition is 108 ± 6% and the IC50 turned out to be 1900 ± 400 nM.
For `O=C(NCCN1CCCCC1)c1ccc2c(=O)n(Cc3ccc(F)cc3)c(=O)[nH]c2c1` [Compound 6, 3-(4-Fluoro-benzyl)-2,4-dioxo-1,2,3,4-tetrahydro-quinazoline-7-carboxylic acid (2-piperidine-1-yl-ethyl)-amide], the “nH (Hill coefficient)” value is given as 1.0 ± 0.2, the inhibition amounted to 105 ± 7.5% and the IC50 stood at 1900 ± 400 nM.
As for `CN1[C@@H]2CC[C@H]1C[C@@H](OC(=O)c1cc(Cl)cc(Cl)c1)C2` [MDL72222, reference compound], the “nH (Hill coefficient)” value is listed as 1.25 ± 0.2.
